The data set is described as follows: activity coefficient (dimensionless); of the first substance listed, at infinite dilution; xn = mol fraction of the nth substance listed. To be noted: Liquid, Chromatography, x1 = 0.

± gives the expanded uncertainty stated by the source.

As to `CCCCCCCC` [octane] + CCCCCCCCCCCCCCCCCC(=O)[O-].CCCCn1cc[n+](C)c1, the activity coefficient (323 K) was 2.1 ± 0.2 and the activity coefficient (333 K) worked out at 1.6 ± 0.1. Regarding `CCCCCCCC` [octane] + CCCC[n+]1ccn(C)c1.O=S(=O)([N-]S(=O)(=O)C(F)(F)F)C(F)(F)F, the activity coefficient (323 K) was 23.4 ± 1.6.

Regarding `c1ccsc1` [thiophene] + CCCCn1cc[n+](C)c1.F[B-](F)(F)F, the activity coefficient reads like this: (298 K) 1.7 ± 0.1; (323 K) 1.5 ± 0.1. With `c1ccsc1` [thiophene] + C[n+]1ccn(CCCC#N)c1.N#CN=C=[N-], the activity coefficient (303 K) was determined as 1.7 ± 0.1 and the activity coefficient (323 K) came out at 1.6 ± 0.1. Regarding `Cc1ccccc1` [toluene] + CCCC[n+]1ccn(C)c1.O=S(=O)([N-]S(=O)(=O)C(F)(F)F)C(F)(F)F, for the setting “323 K”, the activity coefficient came to 1.2 ± 0.1. `CCCCCCC` [heptane] + CCCCCCCC[n+]1ccn(C)c1.F[B-](F)(F)F: the activity coefficient is, setting by setting: (298 K) 11 ± 0.8; (323 K) 8.4 ± 0.6.

As for `C=CCCCCCC` [oct-1-ene] + CCCC[n+]1ccn(C)c1.O=S(=O)([N-]S(=O)(=O)C(F)(F)F)C(F)(F)F, where the note is “323 K”, the activity coefficient amounted to 12.3 ± 0.8. `CCOC(C)=O` [ethyl acetate] + CCCCn1cc[n+](C)c1.F[B-](F)(F)F: the activity coefficient reads like this: (298 K) 1.8 ± 0.1; (323 K) 1.7 ± 0.1. `C=CCCCC` [hex-1-ene] + C[n+]1ccn(CCCC#N)c1.N#CN=C=[N-]: the activity coefficient was 71.7 ± 4.9 (303 K) and 60.4 ± 4.1 (323 K). As for `CCCCCC` [hexane] + CCCC[n+]1ccn(C)c1.O=S(=O)([N-]S(=O)(=O)C(F)(F)F)C(F)(F)F, the activity coefficient (323 K) was determined as 12.8 ± 0.9. Regarding `Cc1ccccc1` [toluene] + C[n+]1ccn(CCCC#N)c1.O=S(=O)([N-]S(=O)(=O)C(F)(F)F)C(F)(F)F, the activity coefficient was 3.3 ± 0.2 (303 K) and 3.1 ± 0.2 (323 K). Regarding `CCCCCCCC` [octane] + C[n+]1ccn(CCCC#N)c1.O=S(=O)([N-]S(=O)(=O)C(F)(F)F)C(F)(F)F, the activity coefficient is 191 ± 13 (303 K) and 159 ± 11 (323 K). For the molecule `c1ccccc1` [benzene] + CCCCn1cc[n+](C)c1.F[B-](F)(F)F, the activity coefficient (298 K) is 1.5 ± 0.1 and the activity coefficient (323 K) was 1.5 ± 0.1. As for `CCO` [ethanol] + CCCCCCCCCCCCCCCCCC(=O)[O-].CCCCn1cc[n+](C)c1, the activity coefficient reads like this: (323 K) 0.5 ± 0.1; (333 K) 0.4 ± 0.1. As for `CCO` [ethanol] + CCCC[n+]1ccn(C)c1.O=S(=O)([N-]S(=O)(=O)C(F)(F)F)C(F)(F)F, where the note is “323 K”, the activity coefficient turned out to be 1.2 ± 0.1.

On to `CCO` [ethanol] + CCCCn1cc[n+](C)c1.F[B-](F)(F)F, for which the activity coefficient is 1.1 ± 0.1 (298 K) and 1 ± 0.1 (323 K). With `C1CCCCC1` [cyclohexane] + CCCCCCCCCCCCCCCCCC(=O)[O-].CCCCn1cc[n+](C)c1, the activity coefficient runs as follows: (323 K) 1.1 ± 0.1; (333 K) 1.2 ± 0.1.

Take `c1ccsc1` [thiophene] + CCCCCCCCCCCCCCCCCC(=O)[O-].CCCCn1cc[n+](C)c1: the activity coefficient was 0.8 ± 0.1 (323 K) and 0.8 ± 0.1 (333 K). In the case of `CCO` [ethanol] + CCCCCCCC[n+]1ccn(C)c1.F[B-](F)(F)F, the activity coefficient by setting is: (298 K) 0.5 ± 0.1; (323 K) 0.4 ± 0.1. Turning to `CCO` [ethanol] + C[n+]1ccn(CCCC#N)c1.O=S(=O)([N-]S(=O)(=O)C(F)(F)F)C(F)(F)F, the activity coefficient reads like this: (303 K) 1.7 ± 0.1; (323 K) 1.4 ± 0.1.

Take `O` [water] + CCCC[n+]1ccn(C)c1.O=S(=O)([N-]S(=O)(=O)C(F)(F)F)C(F)(F)F: the activity coefficient (323 K) amounted to 2.6 ± 0.2.

On to `CC1CCCCC1` [methylcyclohexane] + CCCCCCCC[n+]1ccn(C)c1.F[B-](F)(F)F, for which the activity coefficient (298 K) came to 6.7 ± 0.5 and the activity coefficient (323 K) was 5.3 ± 0.4.

For the molecule `Cc1ccccc1` [toluene] + CCCCCCCC[n+]1ccn(C)c1.F[B-](F)(F)F, the activity coefficient (298 K) stood at 1 ± 0.1 and the activity coefficient (323 K) worked out at 0.9 ± 0.1.

These data come from the NIST ThermoML archive (doi:10.1021/je700297c).
